From patent publication US20240158368A1, “Pyrrolidine Main Protease Inhibitors as Antiviral Agents” (AbbVie Inc., priority 2022, published 2024) come the findings set out here.

SMILES strings stand for the structures. Bounds are passed on as bounds.

One series concerns the target 229E Mpro (Human coronavirus 229E (HCoV-229E), UniProt P0C6X1). It is filed as biochemical.
The nature of series [1]: in vitro. The conditions noted are these: human, microsomes, pH 7.4.
The target of another series is SARS-CoV-2 Mpro (Severe acute respiratory syndrome coronavirus 2 (2019-nCoV) (SARS-CoV-2), UniProt P0DTD1). It is filed as biochemical.
A further series addresses SARS-CoV-1 Mpro (Severe acute respiratory syndrome coronavirus (SARS-CoV), UniProt P0C6X7). Format: biochemical.
A short description of series [2]: in vitro. The conditions noted are these: rat, microsomes, pH 7.4.
A short description of series [3]: in vitro. The conditions noted are these: PAMPA.
In a further series the test system is 229E virus. As to the kind of experiment: organism not typed. Particulars: Huh-7, read-out: Antiviral 229E EC50 (μM). It is filed as cell-based.
The next series deals with OC43 Mpro (Human coronavirus OC43 (HCoV-OC43), UniProt P0C6X6). Format: biochemical.
Series [4] relates to SARS-CoV-2 (strain USA-WA1/2020). As to the kind of experiment: microbe, parasite or virus in culture. It is filed as cell-based. Particulars: Severe acute respiratory syndrome coronavirus 2; HeLa-ACE2 cells; read-out: Antiviral CoV-2 EC50.
A further series concerns OC43 virus. As to the kind of experiment: microbe, parasite or virus in culture. Format: cell-based. The conditions noted are these: Betacoronavirus 1, OC43, Huh-7, read-out: Antiviral OC43 EC50 (μM).
Another series addresses MERS Mpro (Middle East respiratory syndrome-related coronavirus (isolate United Kingdom/H123990006/2012) (MERS-CoV) (Betacoronavirus England 1), UniProt K9N7C7). As to the kind of experiment: biochemical.

Sequence of 229E Mpro (P0C6X1 2966-3267 limits assumed): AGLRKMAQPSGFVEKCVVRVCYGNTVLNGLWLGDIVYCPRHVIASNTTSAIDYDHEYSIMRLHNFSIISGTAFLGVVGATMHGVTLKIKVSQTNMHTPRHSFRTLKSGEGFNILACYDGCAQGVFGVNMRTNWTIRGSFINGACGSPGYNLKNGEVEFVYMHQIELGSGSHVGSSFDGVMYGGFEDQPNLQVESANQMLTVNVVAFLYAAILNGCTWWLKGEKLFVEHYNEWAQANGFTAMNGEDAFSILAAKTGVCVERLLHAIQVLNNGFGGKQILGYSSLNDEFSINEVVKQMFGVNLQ
Sequence of MERS Mpro (K9N7C7 3248-3553 limits assumed): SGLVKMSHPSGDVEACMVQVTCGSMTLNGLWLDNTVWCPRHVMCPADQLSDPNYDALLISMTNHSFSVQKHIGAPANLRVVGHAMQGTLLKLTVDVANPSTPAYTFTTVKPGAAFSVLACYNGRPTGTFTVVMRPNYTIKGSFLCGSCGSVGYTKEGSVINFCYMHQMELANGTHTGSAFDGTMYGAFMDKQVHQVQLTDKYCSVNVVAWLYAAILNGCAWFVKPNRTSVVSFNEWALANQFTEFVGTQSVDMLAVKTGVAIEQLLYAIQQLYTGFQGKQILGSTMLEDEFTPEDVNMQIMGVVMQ
Sequence of OC43 Mpro (P0C6X6 3247-3549 limits assumed): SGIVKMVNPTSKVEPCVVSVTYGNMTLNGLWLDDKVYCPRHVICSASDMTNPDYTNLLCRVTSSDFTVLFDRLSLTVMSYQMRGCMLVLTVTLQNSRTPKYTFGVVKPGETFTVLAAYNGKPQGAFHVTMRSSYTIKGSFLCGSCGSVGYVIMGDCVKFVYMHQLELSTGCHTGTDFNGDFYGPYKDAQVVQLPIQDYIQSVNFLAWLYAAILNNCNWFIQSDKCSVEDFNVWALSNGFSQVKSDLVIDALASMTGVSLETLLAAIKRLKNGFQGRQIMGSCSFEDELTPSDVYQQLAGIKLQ

The term EC50 denotes the concentration at which the effect is half-maximal. The CLint scaled is a measure of how fast metabolising enzymes remove a compound, apart from limits set by blood flow. High values mean faster metabolism, low ones greater metabolic stability. Broadly, the Papp is a coefficient for how fast a substance crosses the barrier. As for `O=C(N[C@@H]1CCN(c2c(C(=O)N3CCOCC3)cc(Br)cc2C(F)(F)F)C1)c1cc(=O)[nH]c2c(F)c(F)ccc12` [Compound 51], the EC50 at 229E Mpro was 3.56 nM; at SARS-CoV-2 Mpro, 0.42 nM; on SARS-CoV-1 Mpro it was 1.23 nM; in the series on 229E virus it was 0.0475 µM; on OC43 Mpro it was 1.1 nM; in series [4], 16 nM. Besides, the concentration giving a half-maximal response (EC50) in the series with OC43 virus was determined as 0.0584 µM; at MERS Mpro, 0.68 nM. Also, the CLint scaled was 125 mL/min/kg in “in vitro [1]” and 447 mL/min/kg in “in vitro [2]”. Further, in the series “in vitro [3]”, the Papp came out at 14.5 ×10⁻⁶ cm/s.

As for `O=C(N[C@@H]1CCN(c2c(C(=O)N3CCOCC3)cc(Cl)cc2C(F)(F)F)C1)c1cc(=O)[nH]c2c(F)cccc12` [Compound 36], the concentration for a half-maximal effect (EC50) at 229E Mpro is 2.39 nM; at SARS-CoV-2 Mpro, 0.49 nM; on SARS-CoV-1 Mpro, 1.43 nM; in the series on 229E virus, 0.0578 µM; on OC43 Mpro, 0.84 nM; in series [4] it was 9.1 nM. Further, the 50% effective concentration (EC50) in the series with OC43 virus was found to be 0.0487 µM; on MERS Mpro, 1.02 nM. Moreover, the CLint scaled is 95 mL/min/kg in “in vitro [1]” and 403 mL/min/kg in “in vitro [2]”. In “in vitro [3]”, the apparent permeability coefficient (Papp) was 14.3 ×10⁻⁶ cm/s.

On to `O=C(N[C@@H]1CCN(c2c(C(=O)N3CCOCC3)cc(Br)cc2C(F)(F)F)C1)c1c(F)c(=O)[nH]c2c(F)c(F)ccc12` [Compound 50], for which the EC50 on 229E Mpro stood at 4.51 nM; on SARS-CoV-2 Mpro, 0.5 nM; at SARS-CoV-1 Mpro it was 2.23 nM; in the series with 229E virus, 0.319 µM; on OC43 Mpro, 1.2 nM; in [4], 11.4 nM. Also, the half-maximal effective concentration (EC50) worked out at 0.303 µM in the series on OC43 virus and 1.9 nM on MERS Mpro. For the same compound, the values for the CLint scaled in the series “in vitro [1]” and in the series “in vitro [2]” were 190 mL/min/kg and 165 mL/min/kg, respectively. The Papp in the series “in vitro [3]” amounted to 16.2 ×10⁻⁶ cm/s.

As to `O=C(N[C@@H]1CCN(c2c(C(=O)N3CCOCC3)cc(Br)cc2C(F)(F)F)C1)c1cc(=O)[nH]c2ccccc12` [Compound 56], the EC50 on 229E Mpro was 1.83 nM; on SARS-CoV-2 Mpro, 0.45 nM; at SARS-CoV-1 Mpro, 4.49 nM; in the series on 229E virus it was 0.062 µM; at OC43 Mpro it was 0.74 nM; in series [4] it was 18.1 nM. Further, the figures for the EC50 in the series with OC43 virus and on MERS Mpro were 0.014 µM and 0.92 nM, respectively. In addition, the CLint scaled in “in vitro [1]” was 157 mL/min/kg; in the series “in vitro [2]”, 400 mL/min/kg. The apparent permeability coefficient (Papp) in the series “in vitro [3]” worked out at 10.9 ×10⁻⁶ cm/s.

Turning to `COc1cccc2[nH]c(=O)cc(C(=O)N[C@@H]3CCN(c4c(C(=O)N5CCOCC5)cc(C)cc4C4CC4)C3)c12` [Compound 81], the EC50 on 229E Mpro turned out to be 2.13 nM; at SARS-CoV-2 Mpro it was 0.49 nM; on SARS-CoV-1 Mpro, 1.38 nM; in the series with 229E virus, 0.073 µM; on OC43 Mpro, 0.66 nM; in [4] it was 18.2 nM. Moreover, the figures for the concentration giving a half-maximal response (EC50) in the series on OC43 virus and on MERS Mpro were 0.013 µM and 2.31 nM, respectively. For the same compound, the CLint scaled in the series “in vitro [1]” was 65 mL/min/kg; in the series “in vitro [2]” it was 227 mL/min/kg. The compound further yielded an apparent permeability coefficient (Papp) in the series “in vitro [3]” of 2.81 ×10⁻⁶ cm/s.

As for `N#Cc1cc(C(=O)N2CCOCC2)c(N2CC[C@@H](NC(=O)c3c(F)c(=O)[nH]c4c(F)cccc34)C2)c(C(F)(F)F)c1` [Compound 5], the EC50 on 229E Mpro was 1.44 nM; at SARS-CoV-2 Mpro, 0.48 nM; on SARS-CoV-1 Mpro, 1.5 nM; with 229E virus it was 0.039 µM; on OC43 Mpro, 1.25 nM; in [4], 10.2 nM. The half-maximal effective concentration (EC50) in the series with OC43 virus stood at 0.047 µM; on MERS Mpro, 1.26 nM. The CLint scaled was < 36.7 mL/min/kg in the series “in vitro [1]” and < 60 mL/min/kg in “in vitro [2]”. In addition, the Papp in the series “in vitro [3]” is 7.23 ×10⁻⁶ cm/s.

For the compound `O=C(N[C@@H]1CCN(c2c(C(=O)N3CCOCC3)cc(Br)cc2C(F)(F)F)C1)c1cc(C(F)F)[nH]c(=O)c1` [Compound 61], the EC50 was 367 nM on 229E Mpro; 1.93 nM on SARS-CoV-2 Mpro; 4.61 nM on SARS-CoV-1 Mpro; 63.1 µM with 229E virus; 52.3 nM on OC43 Mpro; 413 nM in series [4]. In addition, the values for the half-maximal effective concentration (EC50) in the series with OC43 virus and on MERS Mpro were 11.4 µM and 3.25 nM, respectively. Besides, the CLint scaled was 51.7 mL/min/kg in “in vitro [1]” and 83.3 mL/min/kg in “in vitro [2]”. Besides, the Papp in “in vitro [3]” amounted to 15.7 ×10⁻⁶ cm/s.

Consider `N#Cc1cc(C(=O)N2CCOCC2)c(N2C[C@H](NC(=O)c3cc(=O)[nH]c4c(F)c(F)ccc34)CC2=O)c(C(F)(F)F)c1` [Compound 34], for which the 50% effective concentration (EC50) was 41.7 nM on 229E Mpro; 1.12 nM at SARS-CoV-2 Mpro; 2.98 nM at SARS-CoV-1 Mpro; 3.37 µM in the series with 229E virus; 91.8 nM at OC43 Mpro; 7.32 µM in the series on OC43 virus. The same compound yielded an EC50 on MERS Mpro of 2.28 nM. For the same compound, the CLint scaled is < 26.7 mL/min/kg in the series “in vitro [1]” and < 45 mL/min/kg in the series “in vitro [2]”. In “in vitro [3]”, this compound had a Papp of 1.04 ×10⁻⁶ cm/s.

`O=C(N[C@@H]1CCN(c2c(C(=O)N3CCOCC3)cc(Br)cc2C(F)(F)F)C1)c1c(F)c(=O)[nH]c2c(F)cccc12` [Compound 48]: the EC50 on 229E Mpro turned out to be 1.43 nM; on SARS-CoV-2 Mpro, 0.43 nM; on SARS-CoV-1 Mpro it was 1.15 nM; with 229E virus it was 0.044 µM; on OC43 Mpro, 0.44 nM; in [4] it was 5.8 nM. Moreover, the EC50 amounted to 0.031 µM in the series with OC43 virus and 0.9 nM on MERS Mpro. The CLint scaled in the series “in vitro [1]” was 81.7 mL/min/kg; in “in vitro [2]” it was 210 mL/min/kg. The compound further gave a Papp in “in vitro [3]” of 17.9 ×10⁻⁶ cm/s.

`N#Cc1cc(C(=O)N2CCOCC2)c(N2CC[C@@H](NC(=O)c3cc(=O)[nH]c4c(F)c(F)ccc34)C2)c(C(F)(F)F)c1` [Compound 8]: the concentration for a half-maximal effect (EC50) on 229E Mpro turned out to be 3.34 nM; at SARS-CoV-2 Mpro, 0.43 nM; on SARS-CoV-1 Mpro it was 1.52 nM; with 229E virus, 0.25 µM; at OC43 Mpro, 4.71 nM; in series [4] it was 19 nM. For the same compound, the EC50 in the series on OC43 virus came out at 0.88 µM; on MERS Mpro it was 1.48 nM. Further, the CLint scaled in the series “in vitro [1]” was < 35 mL/min/kg; in “in vitro [2]”, < 60 mL/min/kg. The Papp in the series “in vitro [3]” was 5.11 ×10⁻⁶ cm/s.

On to `O=C(N[C@@H]1CCN(c2c(C(=O)N3CCOCC3)cc(Br)cc2C(F)(F)F)C1)c1cc(=O)[nH]c2c(F)cc(F)cc12` [Compound 49], for which the EC50 on 229E Mpro is 4.7 nM; at SARS-CoV-2 Mpro it was 0.43 nM; at SARS-CoV-1 Mpro it was 1.1 nM; in the series with 229E virus it was 0.0959 µM; at OC43 Mpro, 1.64 nM; in [4], 11.3 nM. For the same compound, the EC50 in the series on OC43 virus worked out at 0.168 µM; on MERS Mpro, 0.95 nM. Also, the CLint scaled was 190 mL/min/kg in the series “in vitro [1]” and 573 mL/min/kg in “in vitro [2]”. Also, in “in vitro [3]”, the apparent permeability (Papp) came out at 15.6 ×10⁻⁶ cm/s.

For the compound `CN1CCN(C(=O)c2cc(C#N)cc(C(F)(F)F)c2N2CC[C@@H](NC(=O)c3cc(=O)[nH]c4c(F)cccc34)C2)CC1` [Compound 14], the EC50 at 229E Mpro came out at 2.1 nM; on SARS-CoV-2 Mpro, 0.46 nM; at SARS-CoV-1 Mpro it was 2.73 nM; with 229E virus, 0.15 µM; at OC43 Mpro, 2 nM; in series [4], 12.9 nM. For the same compound, the half-maximal effective concentration (EC50) in the series on OC43 virus is 0.19 µM; at MERS Mpro it was 1.33 nM. Also, the CLint scaled is < 30 mL/min/kg in “in vitro [1]” and 56.7 mL/min/kg in “in vitro [2]”. In “in vitro [3]”, this compound displayed a Papp of 2.73 ×10⁻⁶ cm/s.

As to `Cc1cc(C(=O)N2CCOCC2)c(N2C[C@H](NC(=O)c3cc(=O)[nH]c4c(F)c(F)ccc34)C[C@H]2C)c(C2CC2)c1` [Compound 83], the EC50 on 229E Mpro was 1.76 nM; on SARS-CoV-2 Mpro, 0.42 nM; at SARS-CoV-1 Mpro it was 1.53 nM; with 229E virus, 0.029 µM; on OC43 Mpro, 0.42 nM; in the series with OC43 virus it was 0.023 µM. Also, a half-maximal response on MERS Mpro (EC50) required 1.39 nM. Further, the results for the intrinsic metabolic clearance (CLint scaled) in the series “in vitro [1]” and in “in vitro [2]” were 1120 mL/min/kg and 1430 mL/min/kg, respectively. The compound further came in with a Papp in the series “in vitro [3]” of 15.7 ×10⁻⁶ cm/s.
